Source: patent US11066419B2, “1H-pyrrole-2,5-dione compounds and methods of using same” (Frequency Therapeutics, Inc., priority 2016, dated 2021)
pEC50, pIC50: −log10 of the molar value.

Legend:
recombinant human GSK3α = recombinant human GSK3α (Homo sapiens, UniProt P49840); test: In vitro enzymatic assay for inhibition of GSK3α (Kinase-Glo Max luminescence); format: biochemical; settings: 10 uM ATP, 0.1 mg/ml GSKtide, 30° C. 40 minutes, read-out: Potency Alpha
Protocol: (§1) Enzymatic activities using recombinant human GSK3 using an in vitro enzymatic assay for inhibition GSK3α and GSK3β.
(§2) The assay was performed using Kinase-Glo Max luminescence kinase assay kit (Promega). It measures kinase activity by quantitating the amount of ATP remaining in solution following a kinase reaction. The luminescent signal from the assay is correlated with the amount of ATP present and is inversely correlated with the amount of kinase activity. The compounds were diluted in 10% DMSO and 5 μl of the dilution was added to a 50 μl reaction so that the final concentration of DMSO is 1% in all of reactions. The enzymatic reactions were conducted at 30° C. for 40 minutes. The 50 μl reaction mixture contains 40 mM Tris, pH 7.4, 10 mM MgCl2, 0.1 mg/ml BSA, 2 mM DTT, 0.1 mg/ml GSKtide substrate, 10 uM ATP and GSK3. After the enzymatic reaction, 50 μl of Kinase-Glo Max Luminescence kinase assay solution (Promega) was added to each reaction and incubate the plate for 15 minutes at room temperature. Luminescence signal was measured using a BioTek Synergy 2 microplate reader.
(§3) Kinase activity assays were performed in duplicate at each concentration. The luminescence data were analyzed using the computer software, Graphpad Prism. The difference between luminescence intensities in the absence of Kinase (Lut) and in the presence of Kinase (Luc) was defined as 100% activity (Lut−Luc). Using luminescence signal (Lu) in the presence of the compound, % activity was calculated as: % activity={(Lut−Lu)/(Lut−Luc)}×100%, where Lu=the luminescence intensity in the presence of the compound (all percent activities below zero were shown zero in the table).
(§4) The values of % activity versus a series of compound concentrations were then plotted using non-linear regression analysis of Sigmoidal dose-response curve generated with the equation Y=B+(T−B)/1+10((Log EC50−X)×Hill Slope), where Y=percent activity, B=minimum percent activity, T=maximum percent activity, X=logarithm of compound and Hill Slope=slope factor or Hill coefficient. The IC50 value was determined by the concentration causing a half-maximal percent activity.

recombinant human GSK3β = recombinant human GSK3β (Homo sapiens, UniProt P49841); test: In vitro enzymatic assay for inhibition of GSK3β (Kinase-Glo Max luminescence); format: biochemical; settings: 10 uM ATP, 0.1 mg/ml GSKtide, 30° C. 40 minutes, read-out: Potency Beta
Chain of recombinant human GSK3β (P49841 whole entry): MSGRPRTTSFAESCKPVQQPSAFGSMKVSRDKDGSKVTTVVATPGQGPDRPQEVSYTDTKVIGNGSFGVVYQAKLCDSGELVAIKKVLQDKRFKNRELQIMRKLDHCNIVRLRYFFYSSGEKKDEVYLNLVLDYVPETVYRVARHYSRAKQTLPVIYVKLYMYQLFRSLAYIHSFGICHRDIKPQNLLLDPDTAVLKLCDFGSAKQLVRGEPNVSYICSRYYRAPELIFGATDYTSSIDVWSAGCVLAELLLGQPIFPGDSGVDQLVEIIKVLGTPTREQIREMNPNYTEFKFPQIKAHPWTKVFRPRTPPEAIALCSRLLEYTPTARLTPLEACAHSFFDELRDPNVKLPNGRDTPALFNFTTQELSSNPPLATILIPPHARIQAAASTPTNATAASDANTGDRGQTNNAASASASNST
Protocol: as §1, §2, §3, §4

Lgr5-positive cells = test: Expansion of Lgr5-positive cells (cochlear stem cell expansion, 3D Matrigel culture, flow cytometry for Lgr5-GFP); format: cell-based, mouse; settings: for pEC50: Mus musculus, 240 h, Lgr5-positive cell expansion, cochlear cells of neonatal Lgr5-EGFP-IRES-Cre-ER mice, 10 days in culture, read-out: Potency; for % of Cells: percentage of Lgr5-GFP-positive cells after 10 days (D10) in culture, flow cytometer
Protocol: Lgr5-EGFP-IRES-Cre-ER mice (Barker et al., 2007) (http://jaxmice.jax.org/strain/008875.html) are used to analyze the effects of small molecules on cochlear stem cell expansion.
Isolation of stem cells from the inner ear: All animal studies are conducted under an approved institutional protocol according to National Institutes of Health guidelines. For experiments with neonatal mice (postnatal days 1-3), the cochleae are dissected in HBSS and the organ of Corti are separated from the stria vascularis and the modiolus. The organs of Corti are then treated with Cell Recovery Solution (Corning) for 1 h to separate cochlear epithelium from the underlying mesenchyme. Epithelia are then collected and treated with TrypLE (Life Technologies) for 15-20 minutes at 37° C. Single cells obtained by mechanical trituration are filtered (40 μm) and suspended in Matrigel (Corning) for 3D culture.
Cells are cultured in a 1:1 mixture of DMEM and F12, supplemented with Glutamax (GIBCO), N2, B27 (Invitrogen), EGF (50 ng/ml; Chemicon), bFGF (50 ng/ml; Chemicon), IGF1 (50 ng/ml; Chemicon) and the composition provided herein. Media are changed every other day.
Lgr5-positive cells are quantified after 10 days (D10) in culture in multiple conditions. Cell colonies are dissociated into single cells using TrypLE (Gibco). The cells are then stained with propidium iodide (PI) and are analyzed using a flow cytometer for Lgr5-GFP expression. The number of GFP-positive cells and the percentage of GFP-positive cells are quantified.

Chain of recombinant human GSK3α (P49840 whole entry): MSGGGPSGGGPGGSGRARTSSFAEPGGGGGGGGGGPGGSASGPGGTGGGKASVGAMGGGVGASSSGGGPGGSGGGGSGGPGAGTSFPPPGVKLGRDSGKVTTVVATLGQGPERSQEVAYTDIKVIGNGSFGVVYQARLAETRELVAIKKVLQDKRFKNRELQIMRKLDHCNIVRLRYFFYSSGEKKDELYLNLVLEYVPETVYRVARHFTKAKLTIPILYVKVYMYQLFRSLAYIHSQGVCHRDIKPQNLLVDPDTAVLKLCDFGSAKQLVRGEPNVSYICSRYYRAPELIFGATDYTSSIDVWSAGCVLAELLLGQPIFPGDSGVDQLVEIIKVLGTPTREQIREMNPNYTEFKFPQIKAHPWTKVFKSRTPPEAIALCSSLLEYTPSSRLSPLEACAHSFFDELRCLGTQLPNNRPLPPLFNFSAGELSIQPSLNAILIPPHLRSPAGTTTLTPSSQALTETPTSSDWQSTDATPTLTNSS

Structure (SMILES) | pIC50 (recombinant human GSK3α) | pIC50 (recombinant human GSK3β) | pEC50 (Lgr5-positive cells) | % of Cells (Lgr5-positive cells)
O=C1NC(=O)C(c2cnc3ccccn23)=C1c1cn2c3c(cc(F)cc13)CN(C(=O)N1CC(F)(F)C(F)(F)C(F)(F)C1)CC2 [Compound I-22] | 8.00 to 9.00 | 8.00 to 9.00 | 7.00 to 9.00 | ++ (“++” indicates about 6-10%)
NCC1CCN(C(=O)N2CCn3cc(C4=C(c5cnc6ccccn56)C(=O)NC4=O)c4cc(F)cc(c43)C2)CC1 [Compound I-19] | 8.00 to 9.00 | 8.00 to 9.00 | < 6.00 | +++ (“+++” indicates greater than about 11%)
O=C1NC(=O)C(c2cnc3ccccn23)=C1c1cn2c3c(cc(C(F)(F)F)cc13)CN(C(=O)N1CC3CCC(C1)O3)CC2 [Compound I-18] | 8.00 to 9.00 | 8.00 to 9.00 |  | 
O=C1NC(=O)C(c2cnc3ccccn23)=C1c1cn2c3c(cc(F)cc13)CN(C(=O)N1CCOCC(F)(F)C1)CC2 [Compound I-27] | 8.00 to 9.00 | 8.00 to 9.00 | 7.00 to 9.00 | +++ (“+++” indicates greater than about 11%)
CN1CCC2(CC1)CCN(C(=O)N1CCn3cc(C4=C(c5cnc6ccccn56)C(=O)NC4=O)c4cc(C#N)cc(c43)C1)C2 [Compound I-47] | 8.00 to 9.00 | 8.00 to 9.00 |  | 
CC(=O)Nc1cc2c3c(c1)c(C1=C(c4cnc5ccccn45)C(=O)NC1=O)cn3CCN(C(=O)N1CCCCC1)C2 [Compound I-10] | 8.00 to 9.00 | 8.00 to 9.00 | < 6.00 | + (“+” indicates about 0-5%)
O=C1NC(=O)C(c2cnc3ccccn23)=C1c1cn2c3c(cc(F)cc13)CN(C(=O)N1C[C@H]3C[C@@H]1CN3)CC2 [Compound I-13] | 8.00 to 9.00 | 8.00 to 9.00 | < 6.00 | +++ (“+++” indicates greater than about 11%)
O=C1NC(=O)C(c2cnc3ccccn23)=C1c1cn2c3c(cc(F)cc13)CN(C(=O)N1CCC(C(O)C(F)(F)F)CC1)CC2 (stereo not drawn) [Compound I-31] | 8.00 to 9.00 | 8.00 to 9.00 | 7.00 to 9.00 | +++ (“+++” indicates greater than about 11%)
CNC1CCN(C(=O)N2CCn3cc(C4=C(c5cnc6ccccn56)C(=O)NC4=O)c4cc(F)cc(c43)C2)CC1 [Compound I-35] | 8.00 to 9.00 | 8.00 to 9.00 | < 6.00 | + (“+” indicates about 0-5%)
O=C1NC(=O)C(c2cnc3ccccn23)=C1c1cn2c3c(cc(C(F)(F)F)cc13)CN(C(=O)N1CCC(CO)CC1)CC2 [Compound I-20] | 8.00 to 9.00 | 8.00 to 9.00 | < 6.00 | +++ (“+++” indicates greater than about 11%)
NC1CCN(C(=O)N2CCn3cc(C4=C(c5cnc6ccccn56)C(=O)NC4=O)c4cc(F)cc(c43)C2)CC1 [Compound I-34] | 8.00 to 9.00 | 8.00 to 9.00 | < 6.00 | ++ (“++” indicates about 6-10%)
CN1CCC2(CC1)CCN(C(=O)N1CCn3cc(C4=C(c5cnc6ccccn56)C(=O)NC4=O)c4cc(F)cc(c43)C1)C2 [Compound I-42] | 8.00 to 9.00 | 8.00 to 9.00 |  | 
O=C1NC(=O)C(c2cnc3ccccn23)=C1c1cn2c3c(cc(C(F)(F)F)cc13)CN(C(=O)N1CCC(F)(F)CC1)CC2 [Compound I-17] | 8.00 to 9.00 | 8.00 to 9.00 | < 6.00 | + (“+” indicates about 0-5%)
O=C1NC(=O)C(c2cnc3ccccn23)=C1c1cn2c3c(cc(F)cc13)CN(C(=O)N1CCC(F)(F)CC1)CC2 [Compound I-7] | 8.00 to 9.00 | 8.00 to 9.00 | 7.00 to 9.00 | ++ (“++” indicates about 6-10%)
CN(C)CC1CCN(C(=O)N2CCn3cc(C4=C(c5cnc6ccccn56)C(=O)NC4=O)c4cc(F)cc(c43)C2)CC1 [Compound I-33] | 8.00 to 9.00 | 8.00 to 9.00 | 6.00 to 7.00 | +++ (“+++” indicates greater than about 11%)
O=C1NC(=O)C(c2cnc3ccccn23)=C1c1cn2c3c(cc(C(F)(F)F)cc13)CN(C(=O)N1CCCCC1)CC2 [Compound I-1] | 8.00 to 9.00 | 8.00 to 9.00 | 7.00 to 9.00 | +++ (“+++” indicates greater than about 11%)
Nc1cc2c3c(c1)c(C1=C(c4cnc5ccccn45)C(=O)NC1=O)cn3CCN(C(=O)N1CCCCC1)C2 [Compound I-4] | 8.00 to 9.00 | 8.00 to 9.00 | 6.00 to 7.00 | +++ (“+++” indicates greater than about 11%)
C#Cc1cc2c3c(c1)c(C1=C(c4cnc5ccccn45)C(=O)NC1=O)cn3CCN(C(=O)N1CCCCC1)C2 [Compound I-3] | 8.00 to 9.00 | 8.00 to 9.00 | 7.00 to 9.00 | +++ (“+++” indicates greater than about 11%)
O=C1NC(=O)C(c2cnc3ccccn23)=C1c1cn2c3c(cc(F)cc13)CN(C(=O)N1CC(F)(F)OC(F)(F)C1)CC2 [Compound I-24] | 8.00 to 9.00 | 8.00 to 9.00 | 7.00 to 9.00 | ++ (“++” indicates about 6-10%)
O=C1NC(=O)C(c2nnc3ccccn23)=C1c1cn2c3c(cc(F)cc13)CN(C(=O)N1CCCCC1)CC2 [Compound I-28] | 8.00 to 9.00 | 8.00 to 9.00 |  | 
N#Cc1cc2c3c(c1)c(C1=C(c4cnc5ccccn45)C(=O)NC1=O)cn3CCN(C(=O)N1CCC(F)(F)CC1)C2 [Compound I-16] | 8.00 to 9.00 | 8.00 to 9.00 | 6.00 to 7.00 | +++ (“+++” indicates greater than about 11%)
O=C1NC(=O)C(c2cnc3ccccn23)=C1c1cn2c3c(cc(C(F)(F)F)cc13)CN(C(=O)N1CC(F)(F)OC(F)(F)C1)CC2 [Compound I-43] | 8.00 to 9.00 | 8.00 to 9.00 | 6.00 to 7.00 | +++ (“+++” indicates greater than about 11%)
N#Cc1cc2c3c(c1)c(C1=C(c4cnc5ccccn45)C(=O)NC1=O)cn3CCN(C(=O)N1CCC(CO)CC1)C2 [Compound I-21] | 8.00 to 9.00 | 8.00 to 9.00 | < 6.00 | +++ (“+++” indicates greater than about 11%)
O=C1NC(=O)C(c2cnc3ccccn23)=C1c1cn2c3c(cc(F)cc13)CN(C(=O)N1CCCC(F)(F)C1)CC2 [Compound I-12] | 8.00 to 9.00 | 8.00 to 9.00 | 7.00 to 9.00 | +++ (“+++” indicates greater than about 11%)
O=C1NC(=O)C(c2cn3c4c(cc(F)cc24)CN(C(=O)N2CCCCC2)CC3)=C1c1noc2ccccc12 [Compound I-9] | 7.00 to 8.00 | 8.00 to 9.00 | < 6.00 | +++ (“+++” indicates greater than about 11%)
O=C1NC(=O)C(c2cnc3ccccn23)=C1c1cn2c3c(cc(F)cc13)CN(C(=O)N1CCC(F)(F)C(O)C1)CC2 (stereo not drawn) [Compound I-25] | 8.00 to 9.00 | 8.00 to 9.00 |  | 
CN1CCC(CN(C)C(=O)N2CCn3cc(C4=C(c5cnc6ccccn56)C(=O)NC4=O)c4cc(C#N)cc(c43)C2)CC1 [Compound I-46] | 8.00 to 9.00 | 8.00 to 9.00 |  | 
CN(C)C1CCN(C(=O)N2CCn3cc(C4=C(c5cnc6ccccn56)C(=O)NC4=O)c4cc(F)cc(c43)C2)CC1 [Compound I-36] | 8.00 to 9.00 | 8.00 to 9.00 |  | 
CN1CCC(CN(C)C(=O)N2CCn3cc(C4=C(c5cnc6ccccn56)C(=O)NC4=O)c4cc(F)cc(c43)C2)CC1 [Compound I-39] | 8.00 to 9.00 | 8.00 to 9.00 |  | 
CN(C)C1CCN(C(=O)N2CCn3cc(C4=C(c5cnc6ccccn56)C(=O)NC4=O)c4cc(C#N)cc(c43)C2)CC1 [Compound I-45] | 8.00 to 9.00 | 8.00 to 9.00 |  | 
